Assays:
[1] = Lipophilicity, logD of compound at pH 7.4; assay type: physicochemical; settings: buffer
[2] = Metabolic stability in rat Hepatocyte assessed as intrinsic clearance at 0.5 uM incubated for 60 mins by LC-MS/MS analysis; assay type: ADME, tissue-based; settings: hepatocytes, 1 h
[3] = Volume of distribution at steady state in Wistar Han rat at 1 mg/kg, iv measured upto 7 hrs by LC-MS/MS analysis; assay type: ADME, organism-based; settings: in vivo, read-out: Vdss
[4] = Clearance in Wistar Han rat at 1 mg/kg, iv measured upto 7 hrs by LC-MS/MS analysis; assay type: ADME, organism-based; settings: in vivo
[5] = LBF in Wistar Han rat at 1 mg/kg, iv measured upto 7 hrs by LC-MS/MS analysis; assay type: ADME, organism-based; settings: in vivo
[6] = Metabolic stability in human Hepatocyte assessed as intrinsic clearance at 0.5 uM incubated for 120 mins by LC-MS/MS analysis; assay type: ADME, tissue-based; settings: hepatocytes, 2 h
[7] = Oral bioavailability in Wistar Han rat at 3 mg/kg measured upto 24 hrs by LC-MS/MS analysis; assay type: ADME, organism-based; settings: in vivo
[8] = Half life in Wistar Han rat at 1 mg/kg, iv measured upto 7 hrs by LC-MS/MS analysis; assay type: ADME, organism-based; settings: in vivo
[9] = Metabolic stability in dog Hepatocyte assessed as intrinsic clearance at 0.5 uM incubated for 60 mins by LC-MS/MS analysis; assay type: ADME, tissue-based, Canis lupus familiaris; settings: hepatocytes, 1 h
[10] = Unbound clearance in Wistar Han rat at 1 mg/kg, iv measured upto 7 hrs by LC-MS/MS analysis; assay type: ADME, organism-based; settings: in vivo
[11] = Volume of distribution at steady state in Beagle dog at 0.5 mg/kg, iv measured upto 24 hrs by LC-MS/MS analysis; assay type: ADME, organism-based, Canis lupus familiaris; settings: in vivo, read-out: Vdss
[12] = Half life in Beagle dog at 0.5 mg/kg, iv measured upto 24 hrs by LC-MS/MS analysis; assay type: ADME, organism-based, Canis lupus familiaris; settings: in vivo
[13] = Clearance in Beagle dog at 0.5 mg/kg, iv measured upto 24 hrs by LC-MS/MS analysis; assay type: ADME, organism-based, Canis lupus familiaris; settings: in vivo
[14] = Unbound clearance in Beagle dog at 0.5 mg/kg, iv measured upto 24 hrs by LC-MS/MS analysis; assay type: ADME, organism-based, Canis lupus familiaris; settings: in vivo
[15] = LBF in Beagle dog at 0.5 mg/kg, iv measured upto 24 hrs by LC-MS/MS analysis; assay type: ADME, organism-based, Canis lupus familiaris; settings: in vivo
[16] = Oral bioavailability in Beagle dog at 0.5 mg/kg measured upto 24 hrs by LC-MS/MS analysis; assay type: ADME, organism-based, Canis lupus familiaris; settings: in vivo

Row | SMILES | logD [1] | CLH [2] | also measured
1 | CNC(=O)c1cc(C(=O)NC)c2c(c1)[C@](C)(c1ccccc1)CO2 | 3.4 |  | 
2 | CNC(=O)c1cc(C(=O)NC2CC2)cn(Cc2ccccc2)c1=O [GSK620] | 3.1 | 1 mL/min/g | 
3 | CNC(=O)c1cc(C(=O)N[C@H]2[C@@H]3COC[C@@H]32)cc2c1OC[C@H]2c1ccc(F)cc1 | 3.6 | 14.8 mL/min/g | 
4 | CNC(=O)c1cc(C(=O)NC2CC2)cc2c1OC[C@H]2c1cccc2[nH]ccc12 | 3.5 | 4.6 mL/min/g | 
5 | CNC(=O)c1cc(C(N)=O)cc2c1OC[C@H]2c1ccccc1 | 2.7 |  | 
6 | CNC(=O)c1cc(C(=O)NCCc2cnn(C)c2)cc2c1OC[C@H]2c1cccc2[nH]ccc12 | 3.2 | 16.3 mL/min/g | 
7 | CC[C@@]1(c2ccccc2)COc2c(C(=O)NC)cc(C(=O)N[C@H]3[C@@H]4COC[C@@H]43)cc21 | 4.2 |  | 
8 | CNC(=O)c1cc(C(=O)N[C@H]2[C@@H]3COC[C@@H]32)cc2c1OC[C@H]2c1ccccn1 (racemic) | 1.6 |  | 
9 | CNC(=O)c1cc(C(=O)N[C@H]2[C@@H]3COC[C@@H]32)cc2c1OC[C@H]2c1cccc2[nH]ccc12 | 3.1 | 3.6 mL/min/g | 
10 | CNC(=O)c1cc(C(=O)N[C@H]2C[C@@H]2C)cc2c1OC[C@H]2c1ccccc1 | 4.5 |  | 
11 | CNC(=O)c1cc(C(=O)NCCC[C@H]2OC[C@H](N)CO2)cc2c1O[C@H](CF)[C@H]2c1ccccc1 | 2.9 | 1.1 mL/min/g | 
12 | CNC(=O)c1cc(C(=O)NC2CC2)cc2c1OC[C@H]2c1ccc(F)cc1 | 3.8 | 6.1 mL/min/g | 
13 | CNC(=O)c1cc(C(=O)NC2CC2)cc2c1OC[C@H]2c1cccc(OC)c1 (racemic) | 3.8 |  | 
14 | CNC(=O)c1cc(C(=O)N[C@H]2[C@@H]3COC[C@@H]32)cc2c1OC[C@H]2c1cccnc1 (racemic) | 1.4 |  | 
15 | CNC(=O)c1cc(C(=O)N[C@H]2[C@@H]3COC[C@@H]32)cc2c1OC[C@H]2c1ccccc1C | 4 | 30.9 mL/min/g | 
16 | CNC(=O)c1cc(C(=O)N[C@H]2[C@@H]3C[C@@H](O)C[C@@H]32)cc2c1OC[C@H]2c1ccccc1 | 2.9 | 3.3 mL/min/g | 
17 | CNC(=O)c1cc(C(=O)NC)c2c(c1)[C@H](c1ccccc1)[C@@H](CF)O2 | 3.3 | 3 mL/min/g | 
18 | CNC(=O)c1cc(C(=O)N[C@H]2[C@@H]3COC[C@@H]32)cc2c1OC[C@H]2C1CCOCC1 | 2.1 |  | 
19 | CNC(=O)c1cc(C(=O)N[C@H]2[C@@H]3COC[C@@H]32)cc2c1OC[C@@]2(CO)c1ccccc1 | 2.4 | 1.4 mL/min/g | 
20 | CCC(=O)N1C[C@@H]2[C@H](C1)[C@H]2NC(=O)c1cc(C(=O)NC)c2c(c1)[C@H](c1ccccc1)CO2 | 3.4 | 6.8 mL/min/g | 

Row | SMILES | logD [1] | CLH [2] | also measured
21 | CNC(=O)c1cc(C(=O)N[C@H]2CC[C@H](O)CC2)cc2c1OC[C@@]2(C)c1ccccc1 | 3.3 |  | 
22 | CNC(=O)c1cc(C(=O)NC2CC2)cc2c1OC[C@@]2(C)c1ccccc1 | 4 | 6.7 mL/min/g | 
23 | CNC(=O)c1cc(C(=O)N[C@H]2[C@@H]3COC[C@@H]32)cc2c1O[C@H](CF)[C@H]2c1ccccc1 [GSK973] | 3.6 | 1.8 mL/min/g | 
24 | CNC(=O)c1cc(C(=O)N[C@H]2[C@@H]3COC[C@@H]32)cc2c1OC[C@H]2c1ccccc1 | 3.3 | 8.6 mL/min/g | 
25 | CNC(=O)c1cc(C(N)=O)cc2c1O[C@H](CF)[C@H]2c1ccccc1 | 2.9 |  | 
26 | CNC(=O)c1cc(C(=O)NC2CC2)cc2c1OC[C@H]2c1ccccc1 | 3.6 | 2 mL/min/g | Vd [3]: 0.6 L/kg; clearance [4]: 34 mL/min/kg; LBF [5]: 43%; CLH [6]: < 0.5 mL/min/g; bioavailability [7]: 47%; half-life [8]: 18 min; CLH [9]: < 0.7 mL/min/g; CL free [10]: 723 mL/min/kg
27 | CNC(=O)c1cc(C(=O)N[C@H]2C[C@@H]2C)cc2c1OC[C@@]2(CO)c1ccccc1 | 3.3 | 2.7 mL/min/g | Vd [3]: 1.2 L/kg; clearance [4]: 60 mL/min/kg; LBF [5]: 60%; CLH [6]: < 0.5 mL/min/g; bioavailability [7]: 38%; half-life [8]: 18 min; CLH [9]: 1 mL/min/g; CL free [10]: 340 mL/min/kg
28 | CNC(=O)c1cc(C(=O)NC2CC2)cc2c1O[C@H](CF)[C@H]2c1ccccc1 | 3.9 | 3.2 mL/min/g | 
29 | CNC(=O)c1cc(C(=O)N[C@H]2[C@@H]3COC[C@@H]32)cc2c1OC[C@H]2c1cccc(OC)c1 (racemic) | 3.2 |  | 
30 | CNC(=O)c1cc(C(=O)Nc2cnn(C)c2)cc2c1OC[C@H]2c1ccccc1 | 3.5 | 20.1 mL/min/g | 
31 | CNC(=O)c1cc(C(=O)NC)c2c(c1)[C@H](c1ccccc1)CO2 | 3.2 |  | 
32 | CNC(=O)c1cc(C(=O)N[C@H]2[C@@H]3C[C@@H](O)C[C@@H]32)cc2c1OC[C@@]2(C)c1ccccc1 | 3.3 | 1 mL/min/g | Vd [11]: 0.9 L/kg; half-life [12]: 174 min; clearance [13]: 5 mL/min/kg; Vd [3]: 2.3 L/kg; clearance [4]: 55 mL/min/kg; LBF [5]: 69%; CL free [14]: 24 mL/min/kg; CLH [6]: < 0.5 mL/min/g; LBF [15]: 8%; bioavailability [7]: 32%; half-life [8]: 42 min; CLH [9]: < 0.7 mL/min/g; CL free [10]: 260 mL/min/kg; bioavailability [16]: 64%
33 | CNC(=O)c1cc(C(=O)N[C@H]2[C@@H]3COC[C@@H]32)cc2c1OC[C@@]2(C)c1ccccc1 | 3.7 | 1.2 mL/min/g | Vd [3]: 1.6 L/kg; clearance [4]: 61 mL/min/kg; LBF [5]: 77%; CLH [6]: < 0.5 mL/min/g; bioavailability [7]: 54%; half-life [8]: 18 min; CLH [9]: < 0.7 mL/min/g; CL free [10]: 274 mL/min/kg
34 | CNC(=O)c1cc(C(=O)N[C@@H]2C[C@H]2C)cc2c1O[C@H](CF)[C@H]2c1ccccc1 | 4.5 |  | 
35 | CNC(=O)c1cc(C(=O)NC2CC2)cc2c1OC[C@H]2c1cccc(F)c1 | 3.7 | 10 mL/min/g | 
36 | CNC(=O)c1cc(C(=O)NCCC[C@H]2OC[C@H](N)CO2)cc2c1OC[C@H]2c1ccccc1 | 2.6 |  | 
37 | CNC(=O)c1cc(C(=O)NCCc2cnn(C)c2)cc2c1OC[C@H]2c1ccccc1 | 3.2 |  | 
38 | CNC(=O)c1cc(C(=O)N[C@H]2[C@@H]3C[C@H](O)C[C@@H]32)cc2c1OC[C@@]2(C)c1ccccc1 | 3.7 | 6.4 mL/min/g | 
39 | CNC(=O)c1cc(C(=O)N[C@H]2[C@@H]3COC[C@@H]32)cc2c1OC[C@H]2c1ccncc1 (racemic) | 1.3 |  | 
40 | CNC(=O)c1cc(C(=O)N[C@H]2C[C@@H]2C)cc2c1OC[C@@]2(C)c1ccccc1 | 4.7 |  | 
